What was measured:
[1] = Crystal form stability on standing at room temperature, rechecked by powder X-ray diffraction (Test Example 1); type: physicochemical; conditions: allowed to stand for 8 weeks at room temperature
Experimental: In addition, the measurement of powder X-ray diffraction (reflection method) was performed by pulverizing a sample in an agate mortar, taking an appropriate amount of the sample into a sample plate, and measuring a diffraction peak such that a diffraction angle 20 includes a range of 5° to 40°. The X-ray to be radiated was a copper Ka ray (CuKα ray), and the tube voltage was set to 50 kV, the tube current was set to 1 mA, and the step time was set to 120 seconds. The thermal analysis was performed by taking 2 mg of the sample into an aluminum pan and measuring differential scanning calorimetry (DSC) under a condition of a heating rate of 5° C./min. For the measurement of powder X-ray diffraction (reflection method), D8 DISCOVER manufactured by Bruker AXS was used.
The type II crystal of (R)—N-(3-{2,2,2-trifluoro-1-[6-(2-methyl-2H-1,2,3-triazol-4-yl)pyridin-3-yl]ethoxy}quinoxalin-2-yl) propane-1-sulfonamide obtained in step 3 of Example 1 was allowed to stand for 8 weeks at room temperature.

[2] = Long-term storage stability of crystal at 25° C. and 60% RH (Test Example 1); type: physicochemical; conditions: 25° C. and 60% RH for 5 years

| Structure (SMILES) | crystal form after standing (powder X-ray diffraction) [1] | stability (properties, related substances, optical isomers, content, powder X-ray diffraction pattern) [2] |
| --- | --- | --- |
| CCCS(=O)(=O)Nc1nc2ccccc2nc1O[C@H](c1ccc(-c2cnn(C)n2)nc1)C(F)(F)F [type II crystal, (R)—N-(3-{2,2,2-trifluoro-1-[6-(2-methyl-2H-1,2,3-triazol-4-yl)pyridin-3-yl]ethoxy}quinoxalin-2-yl) propane-1-sulfonamide] | transition to a mixed crystal of the type III crystal and the type II crystal | – |
| CCCS(=O)(=O)Nc1nc2ccccc2nc1O[C@H](c1ccc(-c2cnn(C)n2)nc1)C(F)(F)F [type III crystal, (R)—N-(3-{2,2,2-trifluoro-1-[6-(2-methyl-2H-1,2,3-triazol-4-yl)pyridin-3-yl]ethoxy}quinoxalin-2-yl)propane-1-sulfonamide] | – | no changes in the properties, related substances, optical isomers, content, or powder X-ray diffraction pattern |
